Like-named read-outs stand apart in the source and are kept apart here.
Target: T1, irisin (Homo sapiens, UniProt Q8NAU1)
T1 construct: gene FNDC5; irisin (secreted ectodomain cleaved from FNDC5), His tag with 3C site (pET15b-His-3C-irisin), tag cleavage not mentioned, E. coli C41-DE3, Ni-NTA purified
T1 sequence (Q8NAU1 80-191 limits assumed): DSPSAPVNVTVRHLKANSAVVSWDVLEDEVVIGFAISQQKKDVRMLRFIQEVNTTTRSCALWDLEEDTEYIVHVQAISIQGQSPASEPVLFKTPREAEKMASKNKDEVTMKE
Experiment: isothermal titration calorimetry
Assay type: binding
Source text: isothermal titration calorimetry on irisin

SMILES	Kd (read-out: Ka1 (converted)) [µM]	Kd (read-out: Ka2 (converted)) [µM]
CNCCC(Oc1ccc(C(F)(F)F)cc1)c1ccccc1 (stereo not drawn) [fluoxetine]	0.156	–
COc1ccc2c3c1O[C@H]1C[C@@H](O)C=C[C@@]31CCN(C)C2 [galantamine]	–	8.06
CC12CC3CC(C)(C1)CC(N)(C3)C2 [memantine]	–	9.35

Reference: PMC9180407, “Unraveling the Binding Mechanism of Alzheimer’s Drugs with Irisin: Spectroscopic, Calorimetric, and Computational Approaches” (International Journal of Molecular Sciences, 2022)
